The conditions of series [1]: 4 weeks ip treatment.
The subject of series [2] is NEU1, NEU2, NEU3, NEU4. The experiment in a line: Isoenzyme specificity/selectivity from 4MU-NANA IC50 across the four human neuraminidases. It counts as biochemical. The note with it: isoenzyme(s) the compound is specific for; dual (bispecific) when ratio of IC50 is about 3 or less.
For series [3], the system named is atherosclerotic lesions in ApoE KO mice. The experiment in a line: Atherosclerotic lesion size in aortic root of ApoE KO mice (Red Oil O). The following applies: ApoE KO female mice, ip, 4 weeks.
Series [4] deals with T1, NEU4 (Homo sapiens, UniProt Q8WWR8).
T1 sequence (Q8WWR8 1-484): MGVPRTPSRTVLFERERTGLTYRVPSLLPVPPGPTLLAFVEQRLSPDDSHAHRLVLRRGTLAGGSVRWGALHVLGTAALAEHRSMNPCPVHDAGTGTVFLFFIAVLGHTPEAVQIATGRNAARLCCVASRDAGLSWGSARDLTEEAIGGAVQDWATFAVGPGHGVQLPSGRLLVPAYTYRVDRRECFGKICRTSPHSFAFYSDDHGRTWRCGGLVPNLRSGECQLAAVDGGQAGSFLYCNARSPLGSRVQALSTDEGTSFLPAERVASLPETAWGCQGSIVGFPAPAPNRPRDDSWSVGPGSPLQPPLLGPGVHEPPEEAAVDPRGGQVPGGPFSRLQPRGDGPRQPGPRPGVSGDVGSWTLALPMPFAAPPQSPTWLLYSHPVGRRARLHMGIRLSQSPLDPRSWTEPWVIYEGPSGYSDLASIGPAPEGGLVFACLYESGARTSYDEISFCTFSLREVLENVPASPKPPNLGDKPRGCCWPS
Briefly: IC50 inhibition assay using 4MU-NANA as the substrate, NEU4. The format is biochemical. Also noted: GST; made in house; host or cells: E. coli. The note with it: 4MU-NANA as the substrate; read-out: IC50 NEU4.

In series [5] the target is T2, NEU1 (Homo sapiens, UniProt Q99519).
T2 construct: made in house; host or cells: HEK293 (lentiviral transduction), crude lysate
The experiment in a line: IC50 inhibition assay using 4MU-NANA as the substrate, NEU1. It counts as biochemical. On the procedure: Two weeks after transduction cells were harvested and a crude lysate showing ˜200 nmol/h mg of sialidase activity used in experiments.
Assays were performed with duplicates for each point and IC50 was obtained by plotting the data with Graphpad™ Prism 5.0.

Series [6] addresses T3, NEU3 (Homo sapiens, UniProt Q9UQ49).
T3 sequence (Q9UQ49 1-428): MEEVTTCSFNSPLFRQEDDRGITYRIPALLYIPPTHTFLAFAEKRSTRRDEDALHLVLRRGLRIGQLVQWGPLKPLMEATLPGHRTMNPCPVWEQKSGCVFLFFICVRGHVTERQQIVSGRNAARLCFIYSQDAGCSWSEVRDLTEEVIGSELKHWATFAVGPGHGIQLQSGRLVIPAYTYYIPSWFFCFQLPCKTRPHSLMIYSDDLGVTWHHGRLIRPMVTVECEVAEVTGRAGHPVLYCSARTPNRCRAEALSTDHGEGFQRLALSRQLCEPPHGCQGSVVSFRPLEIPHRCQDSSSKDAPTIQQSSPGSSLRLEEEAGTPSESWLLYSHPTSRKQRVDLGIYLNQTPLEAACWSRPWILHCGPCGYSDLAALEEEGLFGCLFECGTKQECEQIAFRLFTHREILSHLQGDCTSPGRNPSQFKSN
The experiment in a line: IC50 inhibition assay using 4MU-NANA as the substrate, NEU3. More on the design: MBP (N); made in house; host or cells: E. coli. The format is biochemical. The note with it: 4MU-NANA as the substrate; read-out: IC50 NEU3.

The mark [7] stands for this setting: 4MU-NANA as the substrate, read-out: IC50 NEU1.

“Also recorded” adds a separate entry of the source. Read-outs that look alike come from different tables or passages of the source. Where only a bound is given, the exact number is not on record here.

On to `CCCCC(=O)N[C@@H]1C(O)C=C(C(=O)O)OC1C(O)C(O)CO` (stereo partly shown) [compound 31], for which the “changes associated with toxicity (bleeding, leukocyte infiltration, cytoplasmic vacuolisation)” value in series [1] is “did not see specific changes known to be associated with toxicity”. Besides, the “changes in the mice weight or behaviour” value in series [1] is “did not result in any changes in the mice weight or behaviour”. For the same molecule, in series [2], the Target result is recorded as “NEU1”. For the same molecule, the “size of atherosclerotic lesions / fatty streaks in the aortic root” value in series [3] is on record as “Reduced size of fatty streaks; also recorded: significantly reduced the size of atherosclerotic lesions”. The IC50 (commonly the midpoint of a concentration-inhibition curve) in series [4] came to 110 ± 20 µM; in series [5] (setting [7]), 0.99 ± 0.07 µM; in series [5] (target isoenzyme NEU1, 4MU-NANA substrate, read-out: IC50 [μM] NEU1) it was 0.99 µM.

Turning to `CN(C)c1ccc(-c2cn(CC(=O)N[C@@H]3C(O)C=C(C(=O)O)OC3C(O)C(O)CO)nn2)cc1` (stereo partly drawn) [compound 47, 5-(2-(4-(4-(dimethylamino)phenyl-1H-1,2,3-triazol-1-yl)acetamido))-2,3,5-trideoxy-D-glycero-D-galacto-2-nonulopyranosonic acid], the Target entry in series [2] was “NEU1/ NEU2/ NEU3/ NEU4”. Also, the figures for the IC50 in series [6], in series [4] and in series [5] (setting [7]) were 46 ± 7 µM, 36 ± 5 µM and 110 ± 10 µM, respectively.

Turning to `CC(=O)Nc1ccc(-c2cn(CC(=O)N[C@@H]3C(O)C=C(C(=O)O)OC3C(O)C(O)CO)nn2)cc1` (stereo partly shown) [compound 48], the Target entry in series [2] is listed as “NEU2”. For the same molecule, the IC50 in series [6], in series [4] and in series [5] (setting [7]) was > 500 µM throughout.

Take `CCCCCCC(=O)NCC(O)C(O)C1OC(C(=O)O)=CC(O)[C@H]1NC(C)=O` (stereo partly drawn) [compound 52, 5-Acetamido-9-heptanamido-2,6-anhydro-3,5-dideoxy-D-glycero-D-galacto-non-2-enonic acid]: the Target entry in series [2] is “NEU1”. The IC50 in series [6] is 39 ± 8 µM; in series [4], 310 ± 30 µM; in series [5] (setting [7]), 9.9 ± 1.3 µM.

In the case of `CC(=O)N[C@@H]1C(O)C=C(C(=O)O)OC1C(O)C(O)CNC(=O)CCC(C)C` (stereo partly drawn) [compound 55, 5-Acetamido-9-(4-methylpentanamido)-2,6-anhydro-3,5-dideoxy-D-glycero-D-galacto-non-2-enonic acid], the Target result in series [2] is “NEU1”. The IC50 in series [6] was found to be 54 ± 6 µM; in series [4] it was 150 ± 50 µM; in series [5] (setting [7]), 3.2 ± 0.3 µM.

Turning to `CC(=O)N[C@@H]1C(O)C=C(C(=O)O)OC1C(O)C(O)CNC(=O)c1ccccc1` (stereo partly drawn) [compound 56, 5-Acetamido-9-benzamido-2,6-anhydro-3,5-dideoxy-D-glycero-D-galacto-non-2-enonic acid], in series [2], the Target result was “NEU1”. Also, the IC50 came to 34 ± 5 µM in series [6], 150 ± 10 µM in series [4] and 2.5 ± 0.3 µM in series [5] (setting [7]).

For `CCCCC(=O)NCC(O)C(O)C1OC(C(=O)O)=CC(O)[C@H]1NC(=O)CCCC` (stereo partly drawn) [compound 57, 5-Pentanamido-9-pentanamido-2,6-anhydro-3,5-dideoxy-D-glycero-D-galacto-non-2-enonic acid], the Target entry in series [2] is given as “NEU1”. Moreover, the IC50 in series [6] is > 500 µM; in series [4], > 500 µM; in series [5] (setting [7]), 1.5 ± 0.2 µM.

For the molecule `CC(=O)Nc1ccc(C(=O)NC[C@@H](O)[C@@H](O)[C@@H]2OC(C(=O)O)=C[C@H](O)[C@H]2NC(C)=O)cc1` [compound 58, 5-Acetamido-9-(4-acetamido)benzamido-2,6-anhydro-3,5-dideoxy-d-glycero-d-galacto-non-2-enonic acid], in series [2], the Target entry is recorded as “NEU1”. The IC50 worked out at 7.2 ± 1.2 µM in series [6], 24 ± 6 µM in series [4] and 1.9 ± 0.4 µM in series [5] (setting [7]).

As for `CC(=O)N[C@H]1[C@H]([C@H](O)[C@H](O)CNC(=O)c2ccc(N)cc2)OC(C(=O)O)=C[C@@H]1O` [compound 59, 5-Acetamido-9-(4-amino)benzamido-2,6-anhydro-3,5-dideoxy-b-glycero-D-galacto-non-2-enonic acid], the Target result in series [2] is given as “NEU1/ NEU3”. Also, the values for the IC50 in series [6], in series [4] and in series [5] (setting [7]) were 31 ± 6 µM, 210 ± 80 µM and 29 ± 5 µM, respectively.

Consider `CC(=O)Nc1cccc(C(=O)NC[C@@H](O)[C@@H](O)[C@@H]2OC(C(=O)O)=C[C@H](O)[C@H]2NC(C)=O)c1` [compound 60, 5-Acetamido-9-(3-acetamido)benzamido-2,6-anhydro-3,5-dideoxy-d-glycero-d-galacto-non-2-enonic acid], for which the Target entry in series [2] was “NEU1/ NEU3”. Moreover, the IC50 in series [6] was determined as 7.1 ± 0.7 µM; in series [4], 52 ± 9 µM; in series [5] (setting [7]), 6.5 ± 1.1 µM.

In the case of `CC(=O)N[C@H]1[C@H]([C@H](O)[C@H](O)CNC(=O)c2cccc(N)c2)OC(C(=O)O)=C[C@@H]1O` [compound 61, 5-Acetamido-9-(3-amino)benzamido-2,6-anhydro-3,5-dideoxy-b-glycero-D-galacto-non-2-enonic acid], the Target result in series [2] was “NEU1”. Moreover, the 50% inhibitory concentration (IC50) in series [6] is 35 ± 6 µM; in series [4], 150 ± 40 µM; in series [5] (setting [7]), 6.5 ± 0.7 µM.

Regarding `CC(=O)Nc1ccc(C(=O)NCCCCC(=O)NC[C@@H](O)[C@@H](O)[C@@H]2OC(C(=O)O)=C[C@H](O)[C@H]2NC(C)=O)cc1` [compound 62, 5-Acetamido-9-(5-(4-acetamidobenzamido))pentanamido-2,6-anhydro-3,5-dideoxy-d-glycero-d-galacto-non-2-enonic acid], in series [2], the Target entry was “NEU3/ NEU4”. Moreover, the IC50 in series [6] stood at 31 ± 5 µM; in series [4], 46 ± 13 µM; in series [5] (setting [7]), 240 ± 70 µM.

`CCCCCC(=O)NC[C@@H](O)[C@@H](O)[C@@H]1OC(C(=O)O)=C[C@H](O)[C@H]1NC(=O)CCCCC` [compound 64, 5-Hexanamido-9-hexanamido-2,6-anhydro-3,5-dideoxy-d-glycero-d-galacto-non-2-enonic acid]: the Target entry in series [2] is on record as “NEU1”. The IC50 in series [6] was > 500 µM; in series [4], > 500 µM; in series [5] (setting [7]) it was 4.3 ± 0.8 µM.

Turning to `CCCCC(=O)NC[C@@H](O)[C@@H](O)[C@@H]1OC(C(=O)O)=C[C@H](O)[C@H]1NC(=O)CC` [compound 65, 5-Propionamido-9-pentanamido-2,6-anhydro-3,5-dideoxy-D-glycero-D-galacto-non-2-enonic acid], in series [2], the Target entry is on record as “NEU1”. Besides, the IC50 in series [6] is > 500 µM; in series [4], 190 ± 70 µM; in series [5] (setting [7]), 1.6 ± 0.2 µM.

Take `CCCCCC(=O)NC[C@@H](O)[C@@H](O)[C@@H]1OC(C(=O)O)=C[C@H](O)[C@H]1NC(=O)CC` [compound 66, 5-Propionamido-9-hexanamido-2,6-anhydro-3,5-dideoxy-D-glycero-D-galacto-non-2-enonic acid]: in series [2], the Target result was “NEU1”. Further, the concentration for half-maximal inhibition (IC50) came out at 260 ± 70 µM in series [6], 210 ± 90 µM in series [4] and 1.4 ± 0.2 µM in series [5] (setting [7]).

Consider `CCCCCC(=O)N[C@H]1[C@H]([C@H](O)[C@H](O)CNC(=O)CCC)OC(C(=O)O)=C[C@@H]1O` [compound 70, 5-Hexanamido-9-butanamido-2,6-anhydro-3,5-dideoxy-D-glycero-D-galacto-non-2-enonic acid], for which the Target entry in series [2] is given as “NEU1”. Also, the values for the IC50 in series [6], in series [4] and in series [5] (setting [7]) were > 500 µM, > 500 µM and 1.2 ± 0.1 µM, respectively.

Source of the values: patent US11773129B2, “Methods of preventing or treating atherosclerosis with inhibitors of specific isoenzymes of human neuraminidase” (THE GOVERNORS OF THE UNIVERSITY OF ALBERTA, priority 2017, dated 2023).
